Data published in ChEMBL document CHEMBL1129919, “Cyclic homopentapeptides 1. Analogs of tuberactinomycins and capreomycin with activity against vancomycin-resistant enterococci and Pasteurella” (1997).
≈ marks a conversion by molar mass, not a printed value. *1 amine or outer side, *2 acyl side, *3 side chain or, on linkers, in order; H or OH if unused. Where a SMILES comes first, the peptide text is derived from it. Bridges are numbered along the chain shown (N, C = ends). Side-chain parts run from the residue outwards. [ ]: non-standard residue; d: D form. The star is where a group is joined. ξ: configuration not given here. NH(4-cHex-phenyl) = c1cc(C2CCCCC2)ccc1N*; X4 = NC1=NCCC([C@H](N[*:1])C(=O)[*:2])N1; ΔAla(Z-3-ureido) = NC(=O)N/C=C(\N)C(=O)O; ΔDap(Z) = O=C(/C(=C/N[*:3])N[*:1])[*:2]; X6 = c1ccc(Cc2ccc(N*)cc2)cc1; β3hOrn = NCCC[C@H](N)CC(=O)*; X7 = c1cc(N2CCCCC2)ccc1N*; Dap = NC[C@H](N)C(=O)O; CO = O=C([*:1])[*:2]; X5 = Clc1cc(N*)ccc1I; ξDap = NCC(N)C(=O)O

Tests used:
Format in all cases: functional
Enterococcus faecalis [1] = experiment: In vitro antibacterial activity against Enterococcus faecalis (vancomycin, methicillin and ciprofloxacin resistant), expressed as minimum inhibitory concentration (MIC)
Enterococcus faecium [2] = experiment: In vitro antibacterial activity against Enterococcus faecium (vancomycin, methicillin and ciprofloxacin resistant), expressed as minimum inhibitory concentration (MIC).
Mus musculus [3] = experiment: In vivo activity against Escherichia coli in mice after subcutaneous administration; Range is 8-10 mg/kg; conditions: sc, read-out: PD50
Mus musculus [4] = experiment: In vivo activity against Pasteurella multocida in mice after subcutaneous administration; Range is 8-10 mg/kg; conditions: sc, read-out: PD50
Pasteurella multocida = experiment: In vitro antibacterial activity against Pasteurella multocida, expressed as minimum inhibitory concentration (MIC)
Staphylococcus aureus = experiment: In vitro antibacterial activity against methicillin-resistant Staphylococcus aureus (MRSA), expressed as minimum inhibitory concentration (MIC)
Escherichia coli = experiment: In vitro antibacterial activity against Escherichia coli, expressed as minimum inhibitory concentration (MIC)
Mus musculus [5] = experiment: In vivo activity against Pasteurella multocida in mice after subcutaneous administration; conditions: sc, read-out: PD50
Enterococcus faecium [6] = experiment: Protective dose against both MRSA and vancomycin-resistant Enterococcus faecium.; conditions: read-out: PD50
Mus musculus [7] = experiment: In vivo activity against Pasteurella multocida in mice; conditions: read-out: PD50
Enterococcus faecalis [8] = experiment: In vitro antibacterial activity against E. faecalis( vancomycin, methicillin and ciprofloxacin resistant), expressed as minimum inhibitory concentration (MIC)

SMILES | MIC (Enterococcus faecalis [1]) [µg/mL] | MIC (Enterococcus faecium [2]) [µg/mL] | ED50 (Mus musculus [3]) [mg/kg] | ED50 (Mus musculus [4]) [mg/kg] | MIC (Pasteurella multocida) [µg/mL] | MIC (Staphylococcus aureus) [µg/mL] | MIC (Escherichia coli) [µg/mL] | ED50 (Mus musculus [5]) [mg/kg] | ED50 (Enterococcus faecium [6]) [mg/kg] | ED50 (Mus musculus [7]) [mg/kg] | MIC (Enterococcus faecalis [8]) [µg/mL]
NCCC[C@H](N)CC(=O)NC1CNC(=O)[C@H](C2C[C@@H](O)N=C(N)N2)NC(=O)/C(=C/Nc2ccc(Cl)c(Cl)c2)NC(=O)[C@H](CO)NC(=O)[C@H](CO)NC1=O (stereo partly drawn) | 50 (≈ 63.5 µM) | 25 (≈ 31.7 µM) | 10 | 10 | 0.78 (≈ 0.99 µM) | 12.5 (≈ 15.9 µM) | 12.5 (≈ 15.9 µM) | – | – | – | –
C[C@@H]1NC(=O)C(N)CNC(=O)[C@H](C2CCN=C(N)N2)NC(=O)/C(=C/Nc2ccc(C3CCCCC3)cc2)NC(=O)[C@H](CNC(=O)C[C@@H](N)CCCN)NC1=O.NCCC[C@H](N)CC(=O)NC[C@@H]1NC(=O)[C@H](CO)NC(=O)C(N)CNC(=O)[C@H](C2CCN=C(N)N2)NC(=O)/C(=C/Nc2ccc(C3CCCCC3)cc2)NC1=O (stereo partly drawn) | 12.5 | 6.25 | – | – | 0.2 | 1.56 | 6.25 | 2 | – | – | –
C[C@@H]1NC(=O)C(N)CNC(=O)[C@H](C2CCN=C(N)N2)NC(=O)/C(=C/Nc2ccc(Cl)c(Cl)c2)NC(=O)[C@H](CNC(=O)C[C@@H](N)CCCN)NC1=O.NCCC[C@H](N)CC(=O)NC[C@@H]1NC(=O)[C@H](CO)NC(=O)C(N)CNC(=O)[C@H](C2CCN=C(N)N2)NC(=O)/C(=C/Nc2ccc(Cl)c(Cl)c2)NC1=O (stereo partly drawn) | 25 | 12.5 | – | – | 0.39 | 0.78 | 6.25 | 6 | – | – | –
NCC[C@@H](O)[C@H](N)CC(=O)NC1CNC(=O)[C@@H](C2CCN=C(N)N2)NC(=O)/C(=C/NC(=O)Nc2ccc(C3CCCC3)cc2Cl)NC(=O)[C@@H](CO)NC(=O)[C@@H](CO)NC1=O (stereo partly drawn) | 6.25 (≈ 7.23 µM) | 3.12 (≈ 3.61 µM) | – | – | – | 3.12 (≈ 3.61 µM) | – | – | – | – | –
NCCC[C@H](N)CC(=O)NC[C@@H]1NC(=O)[C@H](CO)NC(=O)C(N)CNC(=O)[C@H](C2CCN=C(N)N2)NC(=O)/C(=C/NC(=O)Nc2cc(Cl)c(Cl)c(Cl)c2)NC1=O (stereo partly drawn) | 3.12 (≈ 3.68 µM) | 1.56 (≈ 1.84 µM) | – | – | 0.2 (≈ 0.236 µM) | 0.78 (≈ 0.92 µM) | 12.5 (≈ 14.7 µM) | – | 3 | 4 | –
C[C@@H]1NC(=O)C(N)CNC(=O)[C@H](C2CCN=C(N)N2)NC(=O)/C(=C/Nc2nc(-c3ccc(Br)cc3)cs2)NC(=O)[C@H](CNC(=O)C[C@@H](N)CCCN)NC1=O.NCCC[C@H](N)CC(=O)NC[C@@H]1NC(=O)[C@H](CO)NC(=O)C(N)CNC(=O)[C@H](C2CCN=C(N)N2)NC(=O)/C(=C/Nc2nc(-c3ccc(Br)cc3)cs2)NC1=O (stereo partly drawn) | 50 | 12.5 | – | – | 3.13 | 12.5 | 100 | – | – | – | –
C[C@@H]1NC(=O)C(N)CNC(=O)[C@H](C2CCN=C(N)N2)NC(=O)/C(=C/NC(N)=O)NC(=O)[C@H](CNC(=O)C[C@@H](N)CCCN)NC1=O.NCCC[C@H](N)CC(=O)NC[C@@H]1NC(=O)[C@H](CO)NC(=O)C(N)CNC(=O)[C@H](C2CCN=C(N)N2)NC(=O)/C(=C/NC(N)=O)NC1=O (stereo partly drawn) (H-[ξDap]S[Dap](β3hOrn)[ΔAla(Z-3-ureido)][X4]; lactam 1-C) | – | > 1000 | – | – | 50 | 100 | 200 | – | – | – | > 1000
NCCC[C@H](N)CC(=O)NC[C@@H]1NC(=O)[C@H](CO)NC(=O)C(N)CNC(=O)[C@H](C2CCN=C(N)N2)NC(=O)/C(=C/NC(=O)Nc2ccc(C3CCCCC3)cc2)NC1=O (stereo partly drawn) (H-[ξDap]S[Dap](β3hOrn)[ΔDap(Z)]([CO-NH(4-cHex-phenyl)])[X4]; lactam 1-C) | 3.12 (≈ 3.77 µM) | 1.56 (≈ 1.89 µM) | – | – | 0.39 (≈ 0.472 µM) | 1.56 (≈ 1.89 µM) | 25 (≈ 30.2 µM) | – | – | – | –
C[C@@H]1NC(=O)C(N)CNC(=O)[C@H](C2CCN=C(N)N2)NC(=O)/C(=C/NC(=O)Nc2ccc(Cc3ccccc3)cc2)NC(=O)[C@H](CNC(=O)C[C@@H](N)CCCN)NC1=O.NCCC[C@H](N)CC(=O)NC[C@@H]1NC(=O)[C@H](CO)NC(=O)C(N)CNC(=O)[C@H](C2CCN=C(N)N2)NC(=O)/C(=C/NC(=O)Nc2ccc(Cc3ccccc3)cc2)NC1=O (stereo partly drawn) (H-[ξDap]S[Dap](β3hOrn)[ΔDap(Z)]([CO-X6])[X4]; lactam 1-C) | 6.25 | 3.12 | – | – | 0.78 | 1.56 | 12.5 | – | – | – | –
NCCC[C@H](N)CC(=O)NC[C@@H]1NC(=O)[C@H](CO)NC(=O)C(N)CNC(=O)[C@H](C2CCN=C(N)N2)NC(=O)/C(=C/NC(=O)Nc2ccc(N3CCCCC3)cc2)NC1=O (stereo partly drawn) (H-[ξDap]S[Dap](β3hOrn)[ΔDap(Z)]([CO-X7])[X4]; lactam 1-C) | 100 (≈ 121 µM) | 100 (≈ 121 µM) | – | – | 1.56 (≈ 1.88 µM) | 3.12 (≈ 3.77 µM) | 50 (≈ 60.4 µM) | – | – | – | –
C[C@@H]1NC(=O)C(N)CNC(=O)[C@H](C2CCN=C(N)N2)NC(=O)C(CNC(=O)Nc2ccc(I)c(Cl)c2)NC(=O)[C@H](CNC(=O)C[C@@H](N)CCCN)NC1=O.NCCC[C@H](N)CC(=O)NC[C@@H]1NC(=O)[C@H](CO)NC(=O)C(N)CNC(=O)[C@H](C2CCN=C(N)N2)NC(=O)C(CNC(=O)Nc2ccc(I)c(Cl)c2)NC1=O (stereo partly drawn) (H-[ξDap]S[Dap](β3hOrn)[ξDap]([CO-X5])[X4]; lactam 1-C) | 50 | 12.5 | – | – | 0.78 | 3.12 | 6.25 | – | – | 7 | –
CN[C@H](CC(C)C)C(=O)N[C@H]1C(=O)N[C@@H](CC(N)=O)C(=O)N[C@H]2C(=O)N[C@H]3C(=O)N[C@H](C(=O)N[C@H](C(=O)O)c4cc(O)cc(O)c4-c4cc3ccc4O)[C@H](O)c3ccc(c(Cl)c3)Oc3cc2cc(c3O[C@@H]2O[C@H](CO)[C@@H](O)[C@H](O)[C@H]2O[C@H]2C[C@](C)(N)[C@H](O)[C@H](C)O2)Oc2ccc(cc2Cl)[C@H]1O [VANCOMYCIN] | > 100 | > 100 | – | – | – | 0.78 (≈ 0.538 µM) | – | – | – | – | –
